One compound from publication PMC6133773 (The Journal of organic chemistry, 2018) can be followed below.

Test [1] has as its target T1, IspD (Plasmodium falciparum, UniProt Q8I273).
T1 sequence (Q8I273 60-734): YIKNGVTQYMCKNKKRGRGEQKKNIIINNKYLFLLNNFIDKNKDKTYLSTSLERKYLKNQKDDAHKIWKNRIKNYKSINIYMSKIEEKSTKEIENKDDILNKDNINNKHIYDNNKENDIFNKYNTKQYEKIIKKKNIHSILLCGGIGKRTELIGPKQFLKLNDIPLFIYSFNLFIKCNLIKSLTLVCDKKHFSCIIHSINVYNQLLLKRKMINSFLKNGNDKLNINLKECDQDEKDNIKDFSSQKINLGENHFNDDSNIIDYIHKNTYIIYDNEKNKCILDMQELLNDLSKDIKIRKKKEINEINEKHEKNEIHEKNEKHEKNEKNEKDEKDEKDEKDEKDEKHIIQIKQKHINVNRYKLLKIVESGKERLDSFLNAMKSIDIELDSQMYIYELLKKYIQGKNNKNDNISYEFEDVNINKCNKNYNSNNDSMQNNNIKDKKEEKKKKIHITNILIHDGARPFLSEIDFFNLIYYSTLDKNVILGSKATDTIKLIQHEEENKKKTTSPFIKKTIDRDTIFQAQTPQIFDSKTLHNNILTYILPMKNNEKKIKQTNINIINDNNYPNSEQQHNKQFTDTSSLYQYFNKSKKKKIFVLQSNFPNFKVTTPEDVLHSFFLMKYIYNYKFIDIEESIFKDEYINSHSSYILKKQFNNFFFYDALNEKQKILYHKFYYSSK
Kind of test: MESG coupled pyrophosphate assay, inhibition of MEP turnover. It counts as biochemical.

Test [2] deals with T2, IspD (Escherichia coli, UniProt Q46893).
T2 sequence (Q46893 2-236): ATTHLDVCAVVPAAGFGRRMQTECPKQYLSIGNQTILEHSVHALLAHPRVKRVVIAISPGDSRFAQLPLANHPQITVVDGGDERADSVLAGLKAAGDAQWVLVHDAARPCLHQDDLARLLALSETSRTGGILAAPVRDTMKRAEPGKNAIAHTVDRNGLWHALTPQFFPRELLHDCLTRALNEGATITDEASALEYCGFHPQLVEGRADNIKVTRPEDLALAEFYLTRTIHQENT
The description is as above. It is filed as biochemical.

For orientation: IC50 means the point on the concentration scale where inhibition reaches its midpoint. A higher IC50 goes with weaker potency. As to `C[C@](O)(CO)[C@H](O)C[C@@H](F)P(=O)(O)O` [5b, (5S)-D-methylerythritol monofluoromethyl phosphonate], the IC50 on IspD [1] amounted to 1300 ± 700 µM; against IspD [2], 700 ± 100 µM.
